# What was measured:
# Lewis female rat = experiment: Adjuvant arthritis test; format: in vivo; settings: 50 mg/kg oral daily, 8th to 21st day after adjuvant injection, 6 cases; for Edema inhibiting rate against control group, +14 day, Left / Edema inhibiting rate against control group, +21 day, Left: left hindpaw (injected); for Edema inhibiting rate against control group, +14 day, Left / Edema inhibiting rate against control group, +14 day, Right: day 14; for Edema inhibiting rate against control group, +21 day, Left / Edema inhibiting rate against control group, +21 day, Right: day 21; for Edema inhibiting rate against control group, +14 day, Right / Edema inhibiting rate against control group, +21 day, Right: right hindpaw; for Zonal bone damage inhibiting rate against control group, +22 day: soft X-ray of hindlegs, day 22
# Experimental: When a Mycobacterium butyricum adjuvant is injected into a rat, there occurs polyarthritis similar to human rheumatoid arthritis. Using such an adjuvant arthritis model, the anti-inflammatory and anti-rheumatic effects of the compounds of the present invention and the reference were examined according to the following procedure.
# 0.1 mg of dry dead Mycobacterium butyricum was suspended in 0.1 ml of liquid paraffin, and the suspension was injected into the skin of the sole of the left hindpaw of a Lewis female rat, 7-weeks old. The compounds obtained in Examples 2 and 4 and Reference were respectively dissolved in sterilized distilled water and orally administered at a dose of 50 mg per kg of body weight every day for two weeks from the 8th to 21st day after adjuvant injection. The volumes of the left and right hindpaws were measured. Edema density was calculated according to the formula [formula] and the Edema inhibiting rate was obtained according to the formula [formula] with the results shown in Table 1.
# On the 22nd day, the rats were sacrificed, and soft X-ray photos of the left and right hind-legs were taken, and, based on the soft X-ray photos, the extent of bone damage at 5 zones on the left and right hindlegs was evaluated in points of 5 ranks, and the total points were taken as the zonal bone damage index. Further, the zonal bone damage inhibiting rate was calculated according to the formula [formula] with the results shown in Table 1.
# The results thus obtained had ** noted for those which were significant according to the Student t-test and Tukey multiple comparison method with a perilous rate p<0.02 against the control group having only the sterilized distilled water administered and * noted for those which were significant with a perilous rate p<0.05.
# osteoclasts = experiment: Bone resorption inhibition test; format: cell-based; settings: Mus musculus, Osteoclast, 120 h, active-type vitamin D3 (10^-10 M), ivory lamella, 5 days, read-out: Bone resorption inhibiting rate against control group
# Experimental: With an osteoclast fraction prepared from the hindleg of a mouse placed on a lamella of ivory and stimulated by active-type vitamin D3 there is an resorption lacuna produced on the surface of ivory due to the absorption activity of the osteoclast. Using this absorption model of the bone, the bone resorption inhibiting effect of the compound of the invention was examined according to the following procedure.
# 5 μl of a suspension of osteoclasts prepared from the hindleg of a mouse was placed on a lamella of ivory and cultured in 500 μl of a 5% calf serum α-added MEM medium containing active-type vitamin D3 (10^-10 M) and the compound of the present invention ([…] or 10^-5 M) for 5 days. After culturing, the osteoclasts were removed from the ivory lamella, and the ivory was stained. The total area of resorption lacunae which became obvious by staining was calculated through image analysis. The bone absorption inhibiting rate was calculated by the formula [formula]
# Acute toxicity test = format: in vivo, rat; settings: rat, in vivo, iv, 14 days, distilled water
# Experimental: (§1) Using female and male SD rats (5-week age), 6 rats per group, and a 10% aqueous solution of gum arabic for oral administration, and distilled water for intravenous administration as a solvent for the compound to be tested, mortality, during 14 days after administration were recorded, and the LD50 values were calculated according to the Miller and Tainter Method (1944).
# SD rats = experiment: Acute toxicity test; format: in vivo, rat; settings: 14 days, 20160 min
# Experimental: as §1
# [1] = Oral, Female SD rats, 10% gum arabic
# [2] = Oral, Male SD rats, 10% gum arabic
Compound,"Edema inhibiting rate against control group, +14 day, Left (Lewis female rat)","Edema inhibiting rate against control group, +21 day, Left (Lewis female rat)","Edema inhibiting rate against control group, +14 day, Right (Lewis female rat)","Edema inhibiting rate against control group, +21 day, Right (Lewis female rat)","Zonal bone damage inhibiting rate against control group, +22 day (Lewis female rat)",inhibition at 10 µM (osteoclasts; 10^-5 M),inhibition at 1 µM (osteoclasts; 10^-6 M),LD50 at 336 h (Acute toxicity test; Female SD rats),LD50 at 336 h (Acute toxicity test; Male SD rats),LD50 Values (SD rats; [1]),LD50 Values (SD rats; [2]),"LD50 Values (SD rats; Intravenous, Female SD rats, distilled water)","LD50 Values (SD rats; Intravenous, Male SD rats, distilled water)"
"O=P(O)(O)C(Cc1ccc(O)cc1)P(=O)(O)O [Reference compound, 2-(4-hydroxyphenyl)ethylidene-1,1-diphosphonic acid, reference compound]",4.4%,0.9%,7.9%,6.9%,0%,–,–,–,–,–,–,–,–
"CC(C)(C)c1cc(SC(P(=O)(O)O)P(=O)(O)O)cc(C(C)(C)C)c1O [Example 2, (3,5-di-t-butyl-4-hydroxyphenylthio)methylenediphosphonic acid]",29.2%,33.8%,39.7%,30.4%,32.5%,86%,48%,29.8 mg/kg,45.2 mg/kg,616 mg/kg,652 mg/kg,–,–
"CC(C)(C)c1cc(CC(P(=O)(O)O)P(=O)(O)O)cc(C(C)(C)C)c1O [Example 4, 2-(3,5-di-t-butyl-4-hydroxyphenyl)ethylidene-1,1-di-phosphonic acid]",2.6%,9.7%,31.6%,21.6%,29.4%,–,–,–,–,–,–,–,–
"CC(C)(C)c1cc(SC(P(=O)(O)O)P(=O)(O)O)cc(C(C)(C)C)c1O [Example 8, Disodium(3,5-di-t-butyl-4-hydroxyphenylthio)methylenediphosphonate]",–,–,–,–,–,–,–,–,–,1770 mg/kg,1871 mg/kg,35.7 mg/kg,48.2 mg/kg

# — US5153183A, “Methylenediphosphonic acid compounds and methods of use for the treatment of rheumatism and osteophorosis” (Toray Industries, Inc., priority 1989, dated 1992)
